According to paper PMC9743095 (Journal of Medicinal Chemistry, 2022):

What was measured:
[1] = biological target: T1, adenosine deaminase (ADA) (Bos taurus, UniProt P56658); experiment: Adenosine deaminase assay (UV); assay type: in vitro ADME, Bovine; details: 62.5 μM
T1 construct: purchased Sigma-Aldrich 59722
T1 sequence (P56658 1-363): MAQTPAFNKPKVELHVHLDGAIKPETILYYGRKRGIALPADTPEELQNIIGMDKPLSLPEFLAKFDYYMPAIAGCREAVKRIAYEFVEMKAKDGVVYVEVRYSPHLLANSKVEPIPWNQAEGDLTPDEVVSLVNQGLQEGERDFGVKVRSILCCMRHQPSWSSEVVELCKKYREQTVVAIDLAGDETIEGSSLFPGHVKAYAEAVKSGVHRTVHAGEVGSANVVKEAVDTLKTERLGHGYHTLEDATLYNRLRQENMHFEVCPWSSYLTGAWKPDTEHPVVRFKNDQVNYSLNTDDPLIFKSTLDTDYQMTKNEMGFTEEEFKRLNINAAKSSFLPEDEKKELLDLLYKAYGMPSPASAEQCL
Procedure: Bovine recombinant adenosine deaminase (ADA, EC:3.5.4.4) was purchased from Sigma (Sigma-Aldrich, product number 59722). The ADA suspension (containing >2 U/mL) was aliquoted into 55 μL portions and kept at −20 °C. Before use, a 55 μL sample was thawed and 1 mL of phosphate buffer (0.1 N, pH 7.4) was added. The suspension was filtered through a 0.2 μm filter to remove precipitates that could interfere with the absorbance measurements. The clear supernatant was used for the degradation experiments. The experiments were conducted in UV transparent cuvettes (Sigma-Aldrich, code: Z637092) using an Envision microplate reader (PerkinElmer). […] Scans of the absorption spectrum were taken between 220 and 350 nm with 2 nm resolution every 0.1 min over a period of 10 min to 12 h. One sample containing only ADA was also prepared, and this was subtracted to obtain the spectrum over time for substrates.

[2] = tested on: CEM, K562, HL-60, and CRL cell lines; experiment: Intracellular 3′-dATP quantification, cell lines together; assay type: cell-based, human
Procedure: HL-60 (ATCC CCL-240), K562 (ATCC CCL-243), CCRF-CEM (ATCC CRM-CCL-119), and RL (ATCC CRL-2261) leukemia cell lines were obtained from the American Type Culture Collection (ATCC), Middlesex. HL-60 and K562 cell lines are deoxynucleotidyl transferase-negative (TdT^–ve), whereas CCRF-CEM cell line is TdT^+ve. They were cultured in RPMI-1640 medium (Sigma-Aldrich, U.K.), which were supplemented with 10% fetal bovine serum (FBS) (PAA Laboratories), 1% amphotericin B (5.5 mL), and 1% penicillin/streptomycin (5.5 mL) (PAA Laboratories) and grown in flasks at 37 °C in an incubator with 5% CO2. […]
The analytes were resolved using an ultraperformance liquid chromatography system (Accela UPLC, Thermo Scientific, U.K.) equipped with a Biobasic A × 5 μm, 50 × 2.1 mm column (Thermo Electron Corporation, Murrieta, CA) and mobile phase consisting of a mixture of 10 mM NH4Ac in ACN/H2O (30:70 v/v), pH 6.0 (A), and 1 mM NH4Ac in ACN/H2O (30:70 v/v), pH 10.5 (B). […] Eluting compounds of interest were detected using a triple-stage quadrupole Vantage mass spectrometry system (Thermo Scientific, U.K.) equipped with an electrospray ion source. Samples were analyzed in the Multiple Reaction Monitoring, negative-ion modes at a spray voltage of 3000 V. Nitrogen was used as sheath and auxiliary gas at flow rates of 50 and 20 arbitrary units, respectively. […]

carboxypeptidase Y = biological target: T2, carboxypeptidase Y (Saccharomyces cerevisiae, UniProt P00729); experiment: Carboxypeptidase Y assay (31P NMR); assay type: in vitro ADME; details: acetone-d6/Trizma buffer pH 7.6, 31P NMR
T2 construct: purchased Sigma-Aldrich
T2 sequence (P00729 112-532, species assumed): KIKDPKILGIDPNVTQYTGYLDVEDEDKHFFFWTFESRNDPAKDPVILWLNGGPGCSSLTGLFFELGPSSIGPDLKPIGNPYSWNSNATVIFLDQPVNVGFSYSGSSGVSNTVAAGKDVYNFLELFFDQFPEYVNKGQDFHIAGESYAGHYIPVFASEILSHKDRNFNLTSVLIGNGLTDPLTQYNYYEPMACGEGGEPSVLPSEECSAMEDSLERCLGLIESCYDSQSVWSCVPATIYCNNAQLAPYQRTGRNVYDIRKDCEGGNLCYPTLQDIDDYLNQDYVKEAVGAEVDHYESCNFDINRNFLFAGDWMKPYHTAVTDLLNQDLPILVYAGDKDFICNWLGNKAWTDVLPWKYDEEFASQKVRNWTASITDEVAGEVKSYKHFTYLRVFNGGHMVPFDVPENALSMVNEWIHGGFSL
Procedure: ProTides 7a (5 mg, ±0.008 mmol) was dissolved in 150 μL of acetone-d6, and 300 μL of trizma buffer (pH 7.6) was added. A ^31P NMR (202 MHz, 64–128 scans) was conducted at this stage as a reference (blank, t = 0). To this mixture, 130 μL of a stock solution of carboxypeptidase enzyme (purchased from Sigma-Aldrich, >50 unit/mg, dissolved in trizma buffer 7.6 pH to a concentration of 50 units/mL, EC 3.4.16.1) was added. ^31P NMR (128 scans) were carried out with 1 min of delay between experiments for 14 h at 25 °C.

[3] = tested on: advanced solid tumors or lymphoma; parameters: method as in PMID 34497073; details: preliminary findings, phase I/II trial; cited from earlier work

In the case of `Nc1ncnc2c1ncn2[C@@H]1O[C@H](CO)C[C@H]1O` [3′-dA, 3′-Deoxyadenosine, reference compound], the “time to complete metabolic deamination by ADA” value ([1]; bovine, pH 7.4) is reported as “up to 2 minutes”.
With `C[C@H](NP(=O)(OC[C@@H]1C[C@@H](O)[C@H](n2cnc3c(N)ncnc32)O1)Oc1ccccc1)C(=O)OCc1ccccc1` (stereo partly drawn) [Compound 7a, (Rp)- and (Sp)-3′-Deoxyadenosine 5′-O-phenyl-(benzoxy-L-alaninyl)-phosphate] the “effect of hENT1, AK, and ADA inhibitors on intracellular 3′-dATP levels” value [2] was “did not affect”, the “time to complete conversion into aminoacyl phosphoramidate ester II” value (carboxypeptidase Y) was 1 h and the “UV absorbance spectra in absence and presence of ADA” value ([1]; ADA from calf, phosphate buffer pH 7.4, 25 °C, 12 h) was “the two lines are superimposed”. For the same compound, the “shift of the maximum absorption after ADA addition (deamination)” value ([1]; up to 2 h) was “no shift of the maximum absorption at 265 nm”, the anticancer activity [3] was “encouraging signals of anticancer activity” and the tolerability [3] was “well tolerated”.
